In paper PMC9571594, “Development of Semisynthetic Apoptosis-Inducing Agents Based on Natural Phenolic Acids Scaffold: Design, Synthesis and In-Vitro Biological Evaluation” (Molecules, 2022):
Several values for one entry are separate records, joined by “and”; a condition that tells them apart may be missing. Equal values may be shown once. Read-outs that look alike come from different tables or passages of the source.

Key:
Format in all cases: cell-based
Caco-2 cancer cell line = assay: MTT cell viability assay, Caco-2; details: MTT, 48 h, average of triplicates, semi-synthesized compounds (Table 3), read-out: IC50 (μM) on Caco-2 cancer cell line
Method: MCF-7 cells (Human breast adenocarcinoma), HepG2 (human hepatocellular carcinoma), A549 (human lung adenocarcinoma), Caco-2 (colon carcinoma), PANC-1 (human pancreatic cancer), and Vero cells (derived from normal kidney cells) were supplied by (Holding Company for Biological Products and Vaccines VACSERA; Giza, Egypt). The cells were cultured in PRMI 1640 medium (Lonza, Switzerland) supplemented with 10% fetal bovine serum (Gibco), 1% penicillin and 1% streptomycin (Sigma Aldrich, Saint Louis, MO, USA) at 37 °C under an atmosphere of 5% CO2 and 95% air.
The effect of parent compounds and their derivatives were assessed by (3-(4,5-dimethylthiazol-2-yl)-2,5diphenyl-tetrazolium bromide) MTT assay. […] After a merged sheet of cells developed, the growth media was decanted from the 96-well microtiter and refilled with different concentrations of compounds (µg/mL), and the plate was incubated at 37 °C for 48 h to minimize exposure to the dissolving agent (Supporting Information).
MTT solution (BIO BASIC CANADA INC) was prepared [5 mg/mL in phosphate buffered saline (PBS)], added to each well and incubated for 4 h, then after removing the media, 200 μL of DMSO was added to each well to solubilize the formazan crystals and the optical density of the formazan product was measured at 560 nm using microplate reader (mindray, MR-96A). The results were calculated as the mean of the three independent experiments. […]
Determination of sample cytotoxicity on cells (MTT protocol) […]
well) and incubated at 37°C for 24 hours to develop a complete monolayer sheet.
2- Growth medium was decanted from 96 well micro titer plates after confluent sheet of cells were formed, cell monolayer was washed twice with wash media.
3- two-fold dilutions of tested sample was made in RPMI medium with 2% serum […]
4- 0.1 ml of each dilution was tested in different wells leaving 3 wells as control, receiving only maintenance medium.
5- Plate was incubated at 37°C and examined. Cells were checked for any physical signs of toxicity, e.g. partial or complete loss of the monolayer, rounding, shrinkage, […]
6- MTT solution was prepared (5mg/ml in PBS) (BIO BASIC CANADA INC).
8- 20ul MTT solution were added to each well. Place on a shaking table, 150rpm for 5 minutes, to thoroughly mix the MTT into the media.
10) Dump off the media. (dry plate on paper towels to remove residue if necessary. […] 9 ش - ايلعلا هبضهلا - مطقملا / ىسيئرلا لمعملا […]

Caco-2 cells [1] = assay: Cell-cycle analysis by flow cytometry; details: for %G0–G1 / %G2/M / %S / %Pre-G1: Caco-2 cells; for %G0–G1 / %G2/M / %S: cell-cycle distribution after treatment; for %Pre-G1: Pre-G1 = apoptotic population
Method: The potential candidates with anti-tumor effect on the Caco-2 cell line along with a high SI were chosen for cell-cycle analysis. The cell-cycle distribution and cell death were analyzed using Annexin V-FITC/PI staining and flow cytometry (Table 4, Figure 4).
In order to determine the percentage of viable, apoptotic and necrotic cells after treatment with our compounds, double-staining with fluorescein isothiocyanate (FITC) and PI was performed. Annexin V-FITC Apoptosis Detection Kit (BioVision, CA, USA) was used. Briefly, cultured Caco-2 were treated with the tested compounds or DMSO for 24h. Cells were then collected by centrifugation at 2000 rpm for 5 min, and the pellet was washed with PBS then centrifuged again at 2000 rpm for 5 min then resuspended in 500μL of the kit’s binding buffer before adding the Annexin V-FITC and PI. The cells were then incubated at room temperature in the dark for 5 min. […]
Assay : Cell Cycle Analysis
Kit used : ab139418_Propidium Iodide Flow Cytometry Kit/BD
Assay samples :Cell culture
(§1) Cpd. No. Cpd. No. Cpd. No. Cpd. No.

Caco-2 cells [2] = assay: Annexin V-FITC/PI apoptosis assay by flow cytometry; design: key: % of cells; details: annexin-V FITC/PI staining, 24h
Method: In order to determine the percentage of viable, apoptotic and necrotic cells after treatment with our compounds, double-staining with fluorescein isothiocyanate (FITC) and PI was performed. Annexin V-FITC Apoptosis Detection Kit (BioVision, CA, USA) was used. Briefly, cultured Caco-2 were treated with the tested compounds or DMSO for 24h. Cells were then collected by centrifugation at 2000 rpm for 5 min, and the pellet was washed with PBS then centrifuged again at 2000 rpm for 5 min then resuspended in 500μL of the kit’s binding buffer before adding the Annexin V-FITC and PI. The cells were then incubated at room temperature in the dark for 5 min. Annexin V-FITC binding was measured using FACS Calibur flow cytometer (BD biosciences, USA) (Ex = 488 nm, Em = 533 nm, FL1 filter for annexin and FL2 filter for PI).

p53 = assay: RT-qPCR gene expression of p53
Method: (§2) Gene expression was chosen over Western blotting for more accurate quantification and thus comparison. The gene expression of the p53, caspase 3 and Bax genes was measured.
(§3) The treated cells were harvested and the total RNA was extracted using RNeasy Mini Kit (Qiagen) according to the manufacturer’s instruction. The primers of the required genes (Table 6) were used for SYBR Green qRT-PCR using a one-step RT-PCR kit with SYBR Green (Bio-Rad). qRT-PCR was performed on Rotor Gene Q (Qiagen). […] Rotor-Gene 6000 Series Software was used for data analysis. and their HGNC ID was added (Table 6) […]
(§4) Researcher : DR Moh.Abdelbasir email: m_a_baser@yahoo.com mob.01 […]
(§5) Reader : Rotorgene RT- PCR system
(§6) Kit used : Qiagen RNA extraction/BioRad syber green PCR MMX
(§7) Assay samples :Cell culture Lysate
as §1
(§8) Run On Software Version Rotor-Gene 1.7.87
(§9) This report generated by Rotor-Gene 6000 Series Software 1.7 (Build 87) Copyright 2000-2006 Corbett Research, a Division of Corbett Life Science. All rights reserved. […]

Caspase 3 = assay: RT-qPCR gene expression of caspase 3
Method: as §2, §3, §4, §5, §6, §7, §1, §8, §9

Bax = assay: RT-qPCR gene expression of Bax
Method: as §2, §3, §4, §5, §6, §7, §1, §8, §9

Bcl-2 = assay: RT-qPCR gene expression of Bcl-2; details: Caco2, β-actin as control gene, relative to cont.Caco2 = 1; listed as FA9
Method: as §3, §4, §5, §6, §7, §1, §8, §9

MMP-2 = assay: RT-qPCR gene expression of MMP-2; details: for MMP2 Fold Change: Caco2, relative to cont.Caco2 = 1
Method: (§10) The treated cells were harvested and the total RNA was extracted using RNeasy Mini Kit (Qiagen) according to the manufacturer’s instruction. The primers of the required genes (Table 6) were used for SYBR Green qRT-PCR using a one-step RT-PCR kit with SYBR Green (Bio-Rad). qRT-PCR was performed on Rotor Gene Q (Qiagen). […] Rotor-Gene 6000 Series Software was used for data analysis. and their HGNC ID was added (Table 6)
(§11) Researcher : Dr/Noura email: mob.
as §5, §6, §7, §1

MMP-9 = assay: RT-qPCR gene expression of MMP-9; details: for MMP9 Fold Change: Caco2, relative to cont.Caco2 = 1
Method: as §10, §11, §5, §6, §7, §1

[3] = Caco2, β-actin as control gene, relative to cont.Caco2 = 1, listed as FA9

IC50 (Caco-2 cancer cell line; Homo sapiens, Caco-2) | SMILES | %G0–G1 (Caco-2 cells [1]) | %G2/M (Caco-2 cells [1]) | %S (Caco-2 cells [1]) | %Pre-G1 (Caco-2 cells [1]) | Apoptosis Total (Caco-2 cells [2]) | Early Apoptosis (Caco-2 cells [2]) | Necrosis (Caco-2 cells [2]) | MMP2 Fold Change (MMP-2) | MMP9 Fold Change (MMP-9) | also measured
 | COc1ccc(/C=C/C(=O)NCc2ccccc2)cc1O [Compound 18, (E)-N-Benzyl-3-(3-hydroxy-4-methoxyphenyl) acrylamide] | 33.26 ± 4.29% | 37.62 ± 2.47% | 29.12 ± 4.05% | 12.92 ± 2.16% | 12.92 | 3.88 | 1.73 | 0.42±0.011 Fold Change | 0.52±0.010 Fold Change | IC50 (Caco-2 cancer cell line): 50 µM; apoptotic population compared to the parent compound (Caco-2 cells [1]; Caco-2, in words, versus parent 1 or 2): non-significant decrease; %G0–G1 (Caco-2 cells [1]; listed as FA9): 33.26%; %G2/M (Caco-2 cells [1]; listed as FA9): 37.62%; %S (Caco-2 cells [1]; listed as FA9): 29.12%; %Pre-G1 (Caco-2 cells [1]; listed as FA9): 12.92%; Late Apoptosis (Caco-2 cells [2]): 7.31; P53 gene expression Fold Change (p53; [3]): 5.87±0.27 Fold Change and 5.878 Fold Change; Casp3 gene expression Fold Change (Caspase 3; [3]): 6.02±0.33 Fold Change and 6.029 Fold Change; Bax gene expression Fold Change (Bax; [3]): 6.06±0.41 Fold Change and 6.068 Fold Change; Bcl2 gene expression Fold Change (Bcl-2): 0.58±0.03 Fold Change and 0.5856 Fold Change
20 µM | COc1cc(/C=C/C(=O)NC2CCCCC2)ccc1O [Compound 15, (E)-N-Cyclohexyl-3-(4-hydroxy-3-methoxyphenyl)acrylamide] | 26.59 ± 2.67% | 50.83 ± 3.49% | 22.58 ± 2.91% | 25.17% and 25.17 ± 3.29% | 25.17 | 5.79 | 2.81 | 0.59±0.016 Fold Change | 0.37±0.007 Fold Change | %G0–G1 (Caco-2 cells [1]; listed as FA5): 26.59%; %G2/M (Caco-2 cells [1]; listed as FA5): 50.83%; %S (Caco-2 cells [1]; listed as FA5): 22.58%; overexpression of p53 gene (p53; Figures 6 and 7): 10 fold; overexpression of caspase 3 gene (Caspase 3; Figures 6 and 7): 15 fold; overexpression of Bax gene (Bax; Figures 6 and 7): 15 fold
20 µM | O=C(/C=C/c1ccc(O)c(O)c1)Nc1ccc(Br)cc1 [Compound 7, (E)-N-(4-Bromophenyl)-3-(3,4-dihydroxyphenyl)acrylamide] | 28.68 ± 1.64% | 44.91 ± 3.42% | 26.41 ± 2.15% | 18.26% and 18.26 ± 1.42% | 18.26 | 4.75 | 2.14 | 0.16±0.004 Fold Change | 0.29±0.006 Fold Change | %G0–G1 (Caco-2 cells [1]; listed as CA6): 28.68%; %G2/M (Caco-2 cells [1]; listed as CA6): 44.91%; %S (Caco-2 cells [1]; listed as CA6): 26.41%; expression of MMP2 (in words) (MMP-2; Figures 8 and 9): greatest inhibition; expression of MMP9 (in words) (MMP-9; Figures 8 and 9): greatest inhibition
